Results from ChEMBL document CHEMBL1201862, “PubChem BioAssay data set” (2004).
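These data come from cells grown in 96-well plates and exposed to compound for 48 hours at five concentrations. GI50: concentration for 50% inhibition of growth.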 Calls of active or inactive are those of the source. Rule as the data show it: active = GI50 up to about 1.1 µM and inactive = higher.

How the values were obtained:
Assay in all cases: DTP human tumour cell line panel, 48 h
[1] = system: NCI/ADR-RES
[2] = system: U-251
[3] = system: OVCAR-3
[4] = system: HOP-62
[5] = system: NCI-H226
[6] = system: KM12
[7] = system: HT-29
[8] = system: MCF7
[9] = system: NCI-H460
[10] = system: MDA-N
[11] = system: SW-620
[12] = system: SR
[13] = system: SF-268
[14] = system: PC-3
[15] = system: Hs-578T
[16] = system: DU-145
[17] = system: SK-MEL-5
[18] = system: NCI-H23
[19] = system: SNB-19
[20] = system: BT-549
[21] = system: SK-MEL-2
[22] = system: CCRF-CEM
[23] = system: 786-0
[24] = system: SK-MEL-28
[25] = system: SF-295
[26] = system: LOX IMVI
[27] = system: ACHN
[28] = system: HCT-116
[29] = system: RPMI-8226
[30] = system: HCT-15
[31] = system: M14
[32] = system: UO-31
[33] = system: A549
[34] = system: EKVX
[35] = system: SNB-75
[36] = system: HL-60
[37] = system: HOP-92
[38] = system: MOLT-4
[39] = system: TK-10
[40] = system: K562
[41] = system: MDA-MB-435
[42] = system: COLO 205
[43] = system: A498
[44] = system: SN12C
[45] = system: CAKI-1
[46] = system: Malme-3M
[47] = system: UACC-257
[48] = system: OVCAR-4
[49] = system: OVCAR-8
[50] = system: SF-539
[51] = system: RXF 393
[52] = system: HCC 2998
[53] = system: NCI-H522
[54] = system: MDA-MB-231
[55] = system: OVCAR-5
[56] = system: IGROV-1

## CCCCCc1cc2cc3c(c(O)c2c(=O)[nH]1)C1(CCC3)C(=O)c2c(O)ccc(O)c2C1=O
[1]
  GI50: 99.5 µM (inactive)
[2]
  GI50: > 100 µM (inactive)
[3]
  GI50: > 100 µM (inactive)
[4]
  GI50: 83.9 µM (inactive)
[5]
  GI50: > 100 µM (inactive)
[6]
  GI50: > 100 µM (inactive)
[7]
  GI50: > 100 µM (inactive)
[8]
  GI50: > 100 µM (inactive)
[9]
  GI50: > 100 µM (inactive)
[10]
  GI50: > 100 µM (inactive)
[11]
  GI50: 56 µM (inactive)
[12]
  GI50: > 100 µM (inactive)
[13]
  GI50: > 100 µM (inactive)
[14]
  GI50: > 100 µM (inactive)
[15]
  GI50: > 100 µM (inactive)
[16]
  GI50: > 100 µM (inactive)
[17]
  GI50: > 100 µM (inactive)
[18]
  GI50: > 100 µM (inactive)
[19]
  GI50: > 100 µM (inactive)
[20]
  GI50: > 100 µM (inactive)
[21]
  GI50: 66.7 µM (inactive)
[22]
  GI50: > 100 µM (inactive)
[23]
  GI50: > 100 µM (inactive)
[24]
  GI50: > 100 µM (inactive)
[25]
  GI50: > 100 µM (inactive)
[26]
  GI50: > 100 µM (inactive)
[27]
  GI50: > 100 µM (inactive)
[28]
  GI50: > 100 µM (inactive)
[29]
  GI50: > 100 µM (inactive)
[30]
  GI50: > 100 µM
[31]
  GI50: > 100 µM (inactive)
[32]
  GI50: > 100 µM (inactive)
[33]
  GI50: > 100 µM (inactive)
[34]
  GI50: > 100 µM (inactive)
[35]
  GI50: 58.2 µM (inactive)
[36]
  GI50: > 100 µM (inactive)
[37]
  GI50: > 100 µM (inactive)
[38]
  GI50: > 100 µM (inactive)
[39]
  GI50: 38.6 µM (inactive)
[40]
  GI50: > 100 µM (inactive)
[41]
  GI50: > 100 µM (inactive)
[42]
  GI50: > 100 µM (inactive)
[43]
  GI50: > 100 µM (inactive)
[44]
  GI50: > 100 µM (inactive)
[45]
  GI50: > 100 µM (inactive)
[46]
  GI50: > 100 µM (inactive)
[47]
  GI50: > 100 µM (inactive)
[48]
  GI50: 88.5 µM (inactive)
[49]
  GI50: 59.3 µM (inactive)
[50]
  GI50: > 100 µM (inactive)
[51]
  GI50: 43 µM (inactive)
[52]
  GI50: > 100 µM (inactive)
[53]
  GI50: > 100 µM (inactive)
[54]
  GI50: > 100 µM (inactive)
[55]
  GI50: > 100 µM (inactive)
[56]
  GI50: > 100 µM (inactive)

## CN1CCCCCC(=N\O)/C(=N/O)CCCCC1
[1]
  GI50: > 100 µM (inactive)
[2]
  GI50: > 100 µM (inactive)
[3]
  GI50: > 100 µM (inactive)
[4]
  GI50: > 100 µM (inactive)
[5]
  GI50: > 100 µM (inactive)
[6]
  GI50: > 100 µM (inactive)
[7]
  GI50: > 100 µM (inactive)
[8]
  GI50: > 100 µM (inactive)
[9]
  GI50: > 100 µM (inactive)
[10]
  GI50: > 100 µM (inactive)
[11]
  GI50: > 100 µM (inactive)
[12]
  GI50: > 100 µM (inactive)
[13]
  GI50: > 100 µM (inactive)
[14]
  GI50: > 100 µM (inactive)
[15]
  GI50: > 100 µM (inactive)
[16]
  GI50: > 100 µM (inactive)
[17]
  GI50: > 100 µM (inactive)
[18]
  GI50: > 100 µM (inactive)
[19]
  GI50: > 100 µM (inactive)
[20]
  GI50: 80.7 µM (inactive)
[22]
  GI50: > 100 µM (inactive)
[23]
  GI50: > 100 µM (inactive)
[24]
  GI50: > 100 µM (inactive)
[25]
  GI50: > 100 µM (inactive)
[26]
  GI50: > 100 µM (inactive)
[27]
  GI50: > 100 µM (inactive)
[28]
  GI50: > 100 µM (inactive)
[30]
  GI50: > 100 µM
[31]
  GI50: > 100 µM (inactive)
[32]
  GI50: > 100 µM (inactive)
[33]
  GI50: > 100 µM (inactive)
[34]
  GI50: > 100 µM (inactive)
[35]
  GI50: > 100 µM (inactive)
[36]
  GI50: > 100 µM (inactive)
[37]
  GI50: > 100 µM (inactive)
[38]
  GI50: > 100 µM (inactive)
[39]
  GI50: > 100 µM (inactive)
[40]
  GI50: > 100 µM (inactive)
[41]
  GI50: > 100 µM (inactive)
[43]
  GI50: > 100 µM (inactive)
[44]
  GI50: > 100 µM (inactive)
[45]
  GI50: > 100 µM (inactive)
[46]
  GI50: > 100 µM (inactive)
[47]
  GI50: > 100 µM (inactive)
[49]
  GI50: > 100 µM (inactive)
[50]
  GI50: > 100 µM (inactive)
[51]
  GI50: > 100 µM (inactive)
[53]
  GI50: > 100 µM (inactive)
[54]
  GI50: > 100 µM (inactive)
[55]
  GI50: > 100 µM (inactive)
[56]
  GI50: > 100 µM (inactive)
